# Measurements published in patent US9775844B2, “Heterocyclic compounds and uses thereof” (Infinity Pharmaceuticals, Inc., priority 2014, dated 2017).
# Tests used:
# PI3K δ = PI3K δ (Homo sapiens (Human), UniProt O00329); assay: PI3-Kinase Promega ADP-Glo Max assay; type: biochemical
# Experimental: (§1) Promega ADP-Glo Max assay kit (Cat. No. V7002) was utilized to determine IC50 values for α, β, δ and γ isoforms of human Class I PI3 kinases (Millipore). […] Reactions were incubated at room temperature for 2 hours followed by addition of 25 uL of stop solution. After a 40-minute incubation at room temperature, 50 uL of Promega detection mix was added followed by incubation for 1 hour at room temperature. Plates were then read on Envision plate reader in lunimescence mode. Data was converted to % inhibition using the following equation below:
# (§2) [formula] where S is the sample luminescence, Pos is a positive control without added PI3K, Neg is the negative control without added compound. Data was then plotted as % inhibition vs compound concentration.
# PI3K α = PI3K α (Homo sapiens (Human), UniProt P42336); assay: PI3-Kinase Promega ADP-Glo Max assay; type: biochemical
# PI3K-δ in RAJI cells = PI3K-δ in RAJI cells (Homo sapiens (Human), UniProt O00329); assay: RAJI p110 δ assay (PI3K-δ selective cellular assay, phospho-AKT); type: cell-based; conditions: phospho-AKT; read-out: RAJI p110 δ assay IC50
# [1] = molecular target: PI3K-γ in RAW264.7 macrophages (Mus musculus (Mouse), UniProt Q9JHG7); assay: Raw264.7 p110 γ assay (PI3K-γ selective cellular assay, C5a-stimulated phospho-AKT); type: cell-based; conditions: for IC50: phospho-AKT, read-out: Raw264.7 p110 γ assay IC50
# Text: Briefly, serum-starved RAW264.7 cells are stimulated with a known GPCR agonist C5a. […] Cells can be treated with test compounds prior to, simultaneously with, or subsequent to the stimulation by C5a. RAW 264.7 cells respond to the complement component fragment C5a through activation of the C5a receptor, and the C5a receptor activates macrophages and induces cell migration.
# PI3K β = PI3K β (Homo sapiens (Human), UniProt P42338); assay: PI3-Kinase Promega ADP-Glo Max assay; type: biochemical
# PI3K γ = PI3K γ (Homo sapiens (Human), UniProt P48736); assay: PI3-Kinase Promega ADP-Glo Max assay; type: biochemical
# Experimental: as §1, §2
# Sequence of PI3K α (P42336 whole entry): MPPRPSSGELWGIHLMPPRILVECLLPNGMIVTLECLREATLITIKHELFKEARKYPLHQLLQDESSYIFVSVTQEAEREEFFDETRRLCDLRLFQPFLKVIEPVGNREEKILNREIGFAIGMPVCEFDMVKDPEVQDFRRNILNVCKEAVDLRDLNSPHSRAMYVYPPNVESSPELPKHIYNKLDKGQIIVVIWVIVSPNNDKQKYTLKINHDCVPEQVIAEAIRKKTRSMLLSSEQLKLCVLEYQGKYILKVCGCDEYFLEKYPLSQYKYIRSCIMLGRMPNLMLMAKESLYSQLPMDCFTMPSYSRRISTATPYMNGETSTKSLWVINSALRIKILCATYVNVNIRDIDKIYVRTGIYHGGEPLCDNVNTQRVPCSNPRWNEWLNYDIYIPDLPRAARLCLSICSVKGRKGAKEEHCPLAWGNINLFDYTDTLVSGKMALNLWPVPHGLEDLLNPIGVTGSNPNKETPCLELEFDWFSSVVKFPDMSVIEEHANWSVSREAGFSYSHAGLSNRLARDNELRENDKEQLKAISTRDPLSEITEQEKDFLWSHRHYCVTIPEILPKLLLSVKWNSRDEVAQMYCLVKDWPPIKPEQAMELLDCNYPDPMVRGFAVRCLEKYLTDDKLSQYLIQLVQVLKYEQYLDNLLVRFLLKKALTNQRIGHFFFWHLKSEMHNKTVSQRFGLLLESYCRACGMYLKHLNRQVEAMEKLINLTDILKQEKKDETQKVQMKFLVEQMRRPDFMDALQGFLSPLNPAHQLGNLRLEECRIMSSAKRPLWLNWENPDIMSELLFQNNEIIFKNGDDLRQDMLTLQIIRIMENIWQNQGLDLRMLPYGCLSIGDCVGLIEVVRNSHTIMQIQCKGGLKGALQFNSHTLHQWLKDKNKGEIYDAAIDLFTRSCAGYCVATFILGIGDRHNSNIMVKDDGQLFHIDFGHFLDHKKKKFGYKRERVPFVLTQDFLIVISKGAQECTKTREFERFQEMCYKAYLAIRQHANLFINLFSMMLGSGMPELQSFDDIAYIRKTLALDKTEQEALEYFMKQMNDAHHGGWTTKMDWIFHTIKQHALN
# Sequence of PI3K α (P27986 whole entry partner): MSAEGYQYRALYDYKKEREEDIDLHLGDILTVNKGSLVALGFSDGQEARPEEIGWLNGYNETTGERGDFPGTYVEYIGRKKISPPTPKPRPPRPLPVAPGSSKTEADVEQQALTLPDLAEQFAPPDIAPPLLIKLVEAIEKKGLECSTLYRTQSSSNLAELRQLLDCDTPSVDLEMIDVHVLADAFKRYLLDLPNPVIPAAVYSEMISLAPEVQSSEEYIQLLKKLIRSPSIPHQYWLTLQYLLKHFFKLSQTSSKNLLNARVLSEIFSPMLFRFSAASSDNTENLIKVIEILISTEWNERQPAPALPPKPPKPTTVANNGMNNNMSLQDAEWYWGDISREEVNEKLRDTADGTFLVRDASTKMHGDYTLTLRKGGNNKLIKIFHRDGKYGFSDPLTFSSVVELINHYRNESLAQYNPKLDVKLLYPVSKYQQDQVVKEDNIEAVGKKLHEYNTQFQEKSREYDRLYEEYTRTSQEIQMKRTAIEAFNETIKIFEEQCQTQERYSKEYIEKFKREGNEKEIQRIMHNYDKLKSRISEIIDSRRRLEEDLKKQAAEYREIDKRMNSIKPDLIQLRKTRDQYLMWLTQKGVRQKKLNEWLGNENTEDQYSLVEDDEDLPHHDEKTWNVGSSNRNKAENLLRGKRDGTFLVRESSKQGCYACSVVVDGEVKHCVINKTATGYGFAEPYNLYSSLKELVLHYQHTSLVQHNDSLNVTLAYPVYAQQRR
# Sequence of PI3K δ (O00329 whole entry): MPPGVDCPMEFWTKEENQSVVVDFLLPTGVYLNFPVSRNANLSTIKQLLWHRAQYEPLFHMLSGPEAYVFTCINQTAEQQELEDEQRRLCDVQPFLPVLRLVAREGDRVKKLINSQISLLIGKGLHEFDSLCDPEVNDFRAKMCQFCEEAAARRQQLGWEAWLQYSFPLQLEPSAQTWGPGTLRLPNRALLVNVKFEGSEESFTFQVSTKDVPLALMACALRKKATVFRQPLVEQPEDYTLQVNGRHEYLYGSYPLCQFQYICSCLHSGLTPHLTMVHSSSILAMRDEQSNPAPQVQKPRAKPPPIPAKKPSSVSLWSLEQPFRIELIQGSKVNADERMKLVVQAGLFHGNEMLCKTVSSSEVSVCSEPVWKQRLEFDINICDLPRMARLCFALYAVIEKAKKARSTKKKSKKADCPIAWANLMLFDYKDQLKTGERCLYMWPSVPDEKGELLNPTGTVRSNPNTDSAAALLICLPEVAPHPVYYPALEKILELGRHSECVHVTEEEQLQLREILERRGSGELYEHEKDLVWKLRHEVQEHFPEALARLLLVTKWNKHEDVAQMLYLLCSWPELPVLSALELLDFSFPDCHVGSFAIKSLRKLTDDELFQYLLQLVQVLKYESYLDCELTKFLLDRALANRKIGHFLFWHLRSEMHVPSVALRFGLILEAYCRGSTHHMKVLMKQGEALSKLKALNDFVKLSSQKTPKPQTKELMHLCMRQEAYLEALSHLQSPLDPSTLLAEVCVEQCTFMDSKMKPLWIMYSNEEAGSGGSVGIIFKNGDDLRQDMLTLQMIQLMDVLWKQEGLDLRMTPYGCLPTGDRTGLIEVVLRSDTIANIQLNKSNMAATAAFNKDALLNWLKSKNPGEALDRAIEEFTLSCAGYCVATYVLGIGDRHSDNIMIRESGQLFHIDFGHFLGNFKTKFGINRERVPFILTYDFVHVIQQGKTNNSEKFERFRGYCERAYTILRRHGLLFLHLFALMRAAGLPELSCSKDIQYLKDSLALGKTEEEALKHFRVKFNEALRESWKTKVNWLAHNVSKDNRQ
# Sequence of PI3K δ (P27986 whole entry partner): as the sequence (P27986 whole entry partner) above
# Sequence of PI3K-δ in RAJI cells (O00329 whole entry): as the sequence (O00329 whole entry) above
# Sequence of PI3K-δ in RAJI cells (P27986 whole entry partner): as the sequence (P27986 whole entry partner) above
# Sequence of PI3K-γ in RAW264.7 macrophages (Q9JHG7 whole entry): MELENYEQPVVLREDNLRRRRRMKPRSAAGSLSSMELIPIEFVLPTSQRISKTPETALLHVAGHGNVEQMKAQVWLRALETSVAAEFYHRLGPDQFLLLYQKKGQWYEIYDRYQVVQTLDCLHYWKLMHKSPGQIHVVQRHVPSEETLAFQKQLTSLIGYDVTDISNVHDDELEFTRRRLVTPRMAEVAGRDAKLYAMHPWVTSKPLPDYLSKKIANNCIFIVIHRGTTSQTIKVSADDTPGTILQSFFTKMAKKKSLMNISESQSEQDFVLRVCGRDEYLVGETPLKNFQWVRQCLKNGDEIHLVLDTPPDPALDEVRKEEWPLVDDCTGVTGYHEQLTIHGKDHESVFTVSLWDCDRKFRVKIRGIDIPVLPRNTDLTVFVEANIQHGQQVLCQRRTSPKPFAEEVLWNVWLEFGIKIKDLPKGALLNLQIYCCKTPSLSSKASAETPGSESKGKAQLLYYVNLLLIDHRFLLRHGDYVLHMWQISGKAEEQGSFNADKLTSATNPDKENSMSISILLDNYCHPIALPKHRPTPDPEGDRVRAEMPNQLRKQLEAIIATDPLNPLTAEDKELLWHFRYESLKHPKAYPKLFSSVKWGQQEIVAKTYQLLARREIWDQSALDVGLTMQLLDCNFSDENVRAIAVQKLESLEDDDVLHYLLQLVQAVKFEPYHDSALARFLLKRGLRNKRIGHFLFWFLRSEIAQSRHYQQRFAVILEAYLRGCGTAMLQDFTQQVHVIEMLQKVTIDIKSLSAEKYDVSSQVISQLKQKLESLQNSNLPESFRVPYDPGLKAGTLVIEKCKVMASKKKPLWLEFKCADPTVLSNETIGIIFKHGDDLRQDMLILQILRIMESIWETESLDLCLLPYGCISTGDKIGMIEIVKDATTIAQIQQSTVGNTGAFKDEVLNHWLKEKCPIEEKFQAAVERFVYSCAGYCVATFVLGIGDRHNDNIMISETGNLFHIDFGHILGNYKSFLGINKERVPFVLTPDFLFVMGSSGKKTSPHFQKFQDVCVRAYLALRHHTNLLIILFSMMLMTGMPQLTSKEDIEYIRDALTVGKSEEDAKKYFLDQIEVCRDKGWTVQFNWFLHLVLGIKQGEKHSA
SMILES,IC50 (PI3K δ),IC50 (PI3K α),IC50 (PI3K-δ in RAJI cells),RAJIδ/Raw264.7 γ IC50 (selectivity) [1],IC50 [1],IC50 (PI3K β),IC50 (PI3K γ),PI3K δ/PI3K γ IC50 (selectivity) (PI3K γ)
C[C@H](NC(=O)c1c(N)nn2cccnc12)c1cc2cccc(C#Cc3cncs3)c2c(=O)n1-c1ccccc1 [Compound 41],5 to 10 µM,5 to 10 µM,0.1 to 0.5 µM,Y (Y = 50 to <850),0.001 to 0.05 µM,5 to 10 µM,0.1 to 0.5 µM,Y (Y = 50 to <850)
C[C@H](NC(=O)c1c(N)nn2cccnc12)c1cc2cccc(C#Cc3cnc[nH]3)c2c(=O)n1-c1ccccc1 [Compound 43],5 to 10 µM,5 to 10 µM,0.1 to 0.5 µM,X (X = 10 to <50),0.001 to 0.05 µM,5 to 10 µM,0.1 to 0.5 µM,Y (Y = 50 to <850)
C#Cc1cccc2nc([C@H](C)NC(=O)c3c(N)nn4cccnc34)n(-c3ccc(F)c(F)c3)c(=O)c12 [Compound 45],5 to 10 µM,5 to 10 µM,0.1 to 0.5 µM,W (W = >1 to <10),0.001 to 0.05 µM,5 to 10 µM,0.1 to 0.5 µM,Y (Y = 50 to <850)
C#Cc1cccc2nc([C@H](C)NC(=O)c3c(N)nn4cccnc34)n(-c3ccccc3)c(=O)c12 [Compound 46],1 to 5 µM,5 to 10 µM,0.001 to 0.1 µM,W (W = >1 to <10),0.001 to 0.05 µM,1 to 5 µM,0.001 to 0.1 µM,Y (Y = 50 to <850)
C#Cc1cccc2nc([C@H](C)NC(=O)c3c(N)nn4cccnc34)n(C)c(=O)c12 [Compound 48],1 to 5 µM,1 to 5 µM,0.001 to 0.1 µM,V (V = 0.1 to 1),0.001 to 0.05 µM,0.5 to 1 µM,0.5 to 1 µM,W (W = >1 to <10)
C#Cc1cccc2nc([C@H](C)NC(=O)c3nccnc3N)n(-c3ccc(F)cc3)c(=O)c12 [Compound 49],1 to 5 µM,5 to 10 µM,0.001 to 0.1 µM,V (V = 0.1 to 1),0.001 to 0.05 µM,1 to 5 µM,0.001 to 0.1 µM,X (X = 10 to <50)
C#Cc1cccc2nc([C@H](C)NC(=O)c3c(N)nn4cccnc34)n(-c3ccc(F)cc3)c(=O)c12 [Compound 50],1 to 5 µM,5 to 10 µM,0.001 to 0.1 µM,W (W = >1 to <10),0.001 to 0.05 µM,5 to 10 µM,0.001 to 0.1 µM,Y (Y = 50 to <850)
CC#Cc1cccc2cc(C(C)NC(=O)c3c(N)nn4cccnc34)c(-c3ccccc3)nc12 (centres unmarked) [Compound 51],1 to 5 µM,5 to 10 µM,0.001 to 0.1 µM,W (W = >1 to <10),0.001 to 0.05 µM,1 to 5 µM,0.1 to 0.5 µM,W (W = >1 to <10)
C[C@H](NC(=O)c1c(N)nn2cccnc12)c1cc2cccc(C#Cc3cscn3)c2c(=O)n1-c1ccccc1 [Compound 54],1 to 5 µM,1 to 5 µM,0.1 to 0.5 µM,W (W = >1 to <10),0.001 to 0.05 µM,1 to 5 µM,0.001 to 0.1 µM,Y (Y = 50 to <850)
C[C@H](NC(=O)c1c(N)nn2cccnc12)c1nc2cccc(C#Cc3cnn(C)c3)c2c(=O)n1C [Compound 55],5 to 10 µM,1 to 5 µM,0.5 to 1 µM,X (X = 10 to <50),0.001 to 0.05 µM,1 to 5 µM,1 to 5 µM,W (W = >1 to <10)
C[C@H](NC(=O)c1c(N)nn2cccnc12)c1cc2cccc(C#CCN3CCN(C)CC3)c2c(=O)n1-c1ccccc1 [Compound 56],5 to 10 µM,5 to 10 µM,0.1 to 0.5 µM,V (V = 0.1 to 1),0.1 to 10 µM,5 to 10 µM,0.1 to 0.5 µM,X (X = 10 to <50)
C[C@H](NC(=O)c1c(N)nn2cccnc12)c1cc2cccc(C#CCN(C)C)c2c(=O)n1-c1ccccc1 [Compound 57],5 to 10 µM,5 to 10 µM,0.1 to 0.5 µM,W (W = >1 to <10),0.05 to 0.1 µM,5 to 10 µM,0.5 to 1 µM,W (W = >1 to <10)
C[C@H](NC(=O)c1c(N)nn2cccnc12)c1cc2cccc(C#CC(F)(F)F)c2c(=O)n1-c1ccccc1 [Compound 58],5 to 10 µM,5 to 10 µM,0.5 to 1 µM,V (V = 0.1 to 1),0.1 to 10 µM,5 to 10 µM,1 to 5 µM,W (W = >1 to <10)
C[C@H](NC(=O)c1c(N)nn2cccnc12)c1cc2cccc(C#Cc3nccs3)c2c(=O)n1-c1ccccc1 [Compound 59],5 to 10 µM,5 to 10 µM,0.1 to 0.5 µM,X (X = 10 to <50),0.001 to 0.05 µM,5 to 10 µM,0.1 to 0.5 µM,X (X = 10 to <50)
Cc1csc(C#Cc2cccc3cc([C@H](C)NC(=O)c4c(N)nn5cccnc45)n(-c4ccccc4)c(=O)c23)n1 [Compound 60],5 to 10 µM,5 to 10 µM,0.1 to 0.5 µM,Y (Y = 50 to <850),0.001 to 0.05 µM,5 to 10 µM,0.1 to 0.5 µM,X (X = 10 to <50)
Cc1ccncc1C#Cc1cccc2cc([C@H](C)NC(=O)c3c(N)nn4cccnc34)n(-c3ccccc3)c(=O)c12 [Compound 61],5 to 10 µM,5 to 10 µM,1 to 10 µM,Y (Y = 50 to <850),0.001 to 0.05 µM,5 to 10 µM,0.5 to 1 µM,X (X = 10 to <50)
C[C@H](NC(=O)c1c(N)nn2cccnc12)c1cc2cccc(C#CC3(O)CN4CCC3CC4)c2c(=O)n1-c1ccccc1 (some centres unmarked) [Compound 62],5 to 10 µM,5 to 10 µM,1 to 10 µM,V (V = 0.1 to 1),0.1 to 10 µM,5 to 10 µM,0.5 to 1 µM,X (X = 10 to <50)
Cc1nc(C#Cc2cccc3nc([C@H](C)NC(=O)c4c(N)nn5cccnc45)n(-c4ccccc4)c(=O)c23)cs1 [Compound 63],5 to 10 µM,5 to 10 µM,0.5 to 1 µM,Y (Y = 50 to <850),0.001 to 0.05 µM,5 to 10 µM,0.001 to 0.1 µM,Y (Y = 50 to <850)
C[C@H](NC(=O)c1c(N)nn2cccnc12)c1cc2cccc(C#CC3CCCC3)c2c(=O)n1-c1ccccc1 [Compound 64],5 to 10 µM,5 to 10 µM,1 to 10 µM,X (X = 10 to <50),0.1 to 10 µM,5 to 10 µM,1 to 5 µM,W (W = >1 to <10)
C[C@H](NC(=O)c1c(N)nn2cccnc12)c1cc2cccc(C#CC3CCCCC3)c2c(=O)n1-c1ccccc1 [Compound 65],5 to 10 µM,5 to 10 µM,1 to 10 µM,X (X = 10 to <50),0.1 to 10 µM,5 to 10 µM,1 to 5 µM,W (W = >1 to <10)
C[C@H](NC(=O)c1c(N)nn2cccnc12)c1cc2cccc(C#Cc3cocn3)c2c(=O)n1-c1ccccc1 [Compound 66],1 to 5 µM,5 to 10 µM,0.1 to 0.5 µM,X (X = 10 to <50),0.001 to 0.05 µM,1 to 5 µM,0.001 to 0.1 µM,X (X = 10 to <50)
Cc1ncccc1C#Cc1cccc2cc([C@H](C)NC(=O)c3c(N)nn4cccnc34)n(-c3ccccc3)c(=O)c12 [Compound 67],5 to 10 µM,5 to 10 µM,1 to 10 µM,X (X = 10 to <50),0.1 to 10 µM,5 to 10 µM,1 to 5 µM,W (W = >1 to <10)
Cc1cnc(C(=O)N[C@@H](C)c2cc3cccc(C#Cc4cnn(C)c4)c3c(=O)n2-c2ccccc2)c(N)n1 [Compound 68],5 to 10 µM,5 to 10 µM,1 to 10 µM,W (W = >1 to <10),0.1 to 10 µM,5 to 10 µM,1 to 5 µM,W (W = >1 to <10)
C/C=C/c1cccc2cc([C@H](C)NC(=O)c3c(N)nn4cccnc34)n(-c3ccccc3)c(=O)c12 [Compound 70],5 to 10 µM,5 to 10 µM,0.001 to 0.1 µM,X (X = 10 to <50),0.001 to 0.05 µM,5 to 10 µM,0.1 to 0.5 µM,X (key: V = 0.1 to 1; W = >1 to <10; X = 10 to <50; Y = 50 to <850)
C[C@H](NC(=O)c1c(N)nn2cccnc12)c1cc2cccc(C#CC3CCNCC3)c2c(=O)n1-c1ccccc1 [Compound 72],5 to 10 µM,5 to 10 µM,1 to 10 µM,W (W = >1 to <10),0.1 to 10 µM,5 to 10 µM,0.5 to 1 µM,X (X = 10 to <50)
